Measurements as given in patent USRE35230E (priority 1994, dated 1996).

Tested on: (R)-oxynitrilase
Assay: Relative rates of dehydrocyanation of cyanohydrins by soluble (R)-oxynitrilase (initial rate studies)
Format: biochemical
Settings: 0.21 mM cyanohydrin, dehydrocyanation relative to benzaldehyde cyanohydrin
Procedure: The following standardized assay was utilized to measure the activity of oxynitrilase set forth in the Examples which follow. A solution of enzyme was prepared in 0.1M (pH 5.5) citrate buffer. A 3-ml sample of enzyme solution was combined with 30 microliters of 0.21M benzaldehyde cyanohydrin and the rate of increase in absorbance at 250 nm recorded. Then, the same procedure was followed with a 3-ml sample of 0.1M (pH 5.5) citrate buffer to obtain the background, non-enzymatic, reaction. The activity in units/ml was calculated by subtracting the slope of the non-enzymatic reaction from the slope of the enzymatic reaction and converting the absorbance change with time to concentration change with time using a molar extinction coefficient of 13,200 M^-1 cm^-1.
Relative rates of dehydrocyanation of different cyanohydrins subjected to the action of the soluble catalyst (R)-oxynitrilase were determined from initial rate studies. A solution of (R)-oxynitrilase was combined with a 0.21 mM solution of cyanohydrin and the rate of increase of absorbance at the wavelength corresponding to the absorption maxima was monitored as described above in connection with the measurement of catalyst activity. The measured activity was calculated using the appropriate extinction coefficient for the corresponding aldehyde.

Compound | Relative Rate
CC=CC(O)C#N (stereo not drawn) [Crotonaldehyde cyanohydrin] | 0.90
CCc1ccc(C(O)C#N)cc1 (stereo not drawn) [p-Ethylbenzaldehyde cyanohydrin] | 0.13
N#CC(O)c1ccco1 (stereo not drawn) [Furfural cyanohydrin] | 2.5
COc1cccc(C(O)C#N)c1 (stereo not drawn) [m-Anisaldehyde cyanohydrin] | 0.19
N#CC(O)C=Cc1ccccc1 (stereo not drawn) [Cinnamaldehyde cyanohydrin] | 0.05
COc1ccc(C(O)C#N)cc1 (stereo not drawn) [p-Anisaldehyde cyanohydrin] | 0.17
Cc1ccc(C(O)C#N)o1 (stereo not drawn) [5-Methylfurfural cyanohydrin] | 2.8
N#CC(O)c1ccc2c(c1)OCO2 (stereo not drawn) [Piperonal cyanohydrin] | 2.1
Cc1ccc(C(O)C#N)cc1 (stereo not drawn) [P-Tolualdehyde cyanohydrin] | 0.45
N#CC(O)c1ccccc1 (stereo not drawn) [Benzaldehyde cyanohydrin, reference compound] | 1.0

Tested on: not listed separately
Assay: Permeability in supported-gas membrane system of FIG. 1
Settings: both dehydrocyanation products approximately equal

Compound | average permeability relative to the permeability of benzaldehyde cyanohydrin
O=Cc1ccccc1 [benzaldehyde] | roughly 700 times

Tested on: not given
Assay: not given
Settings: benzaldehyde cyanohydrin to benzaldehyde and hydrogen cyanide; cited from earlier work

Compound | dehydrocyanation equilibrium constant [mM]
N#CC(O)c1ccccc1 (stereo not drawn) [Benzaldehyde cyanohydrin, reference compound] | 5
